Source: the OligoGym collection
Values joined by “and” are separate entries in the source; they are usually repeats but may differ in a detail not shown here. Equal entries are not always repeated. After the bases stand the sugars from the 5' end (letter, count) and the backbone: PS all phosphorothioate, else s phosphorothioate and o phosphodiester by linkage. Methylation of C is not given here. e = 2'-O-(2-methoxyethyl) (MOE); k = constrained ethyl (cEt); d = 2'-deoxy (DNA)

Target: SOD1
Settings: ASO

Sequence: GTTTATCAGGATACATT (sugars e2 k2 d8 k2 e3, PS)
- target mRNA inhibition (HepG2, 0.1875 µM): 41%
- target mRNA inhibition (HepG2, 0.75 µM): 73%
- target mRNA inhibition (HepG2, 3 µM): 89%
- target mRNA inhibition (HepG2, 4 µM): 85%
- target mRNA inhibition (HepG2, 12 µM): 92% and 95%

Sequence: TAACAGATGAGTTAAGG (sugars e2 k2 d8 k2 e3, PS)
- target mRNA inhibition (HepG2, 4 µM): 68%

Sequence: TAACAGATGAGTTAAGG (sugars e2 k2 d9 k2 e2, PS)
- target mRNA inhibition (HepG2, 0.1875 µM): 21%
- target mRNA inhibition (HepG2, 0.75 µM): 64%
- target mRNA inhibition (HepG2, 3 µM): 85%
- target mRNA inhibition (HepG2, 4 µM): 80%
- target mRNA inhibition (HepG2, 12 µM): 96%

Sequence: TAACTGAGTTTTATAAAACT (sugars e5 d10 e5, PS)
- target mRNA inhibition (HepG2, 5 µM): 0%

Sequence: TAAGTCTGGCAAAATAC (sugars e2 k2 d8 k2 e3, PS)
- target mRNA inhibition (HepG2, 5 µM): 24%

Sequence: TAAGTCTGGCAAAATAC (sugars e2 k2 d9 k2 e2, PS)
- target mRNA inhibition (HepG2, 5 µM): 46%

Sequence: TAAGTCTGGCAAAATAC (sugars e3 k2 d7 k2 e3, PS)
- target mRNA inhibition (HepG2, 3 µM): 4%

Sequence: TAAGTGCCATACAGGGT (sugars e2 k2 d8 k2 e3, PS)
- target mRNA inhibition (HepG2, 5 µM): 26%

Sequence: TAAGTGCCATACAGGGTTTT (sugars e5 d10 e5, PS)
- target mRNA inhibition (HepG2, 5 µM): 13%

Sequence: TAATGTTTATCAGGAT (sugars kekeddddddddekek, linkages s1 o3 s8 o1 s2)
- target mRNA inhibition (A431, 0.12 µM): 0%
- target mRNA inhibition (A431, 0.6 µM): 15%
- target mRNA inhibition (A431, 3 µM): 17%
- target mRNA inhibition (A431, 15 µM): 48%

Sequence: TACAGCTAGCAGGATAA (sugars e2 k2 d8 k2 e3, PS)
- target mRNA inhibition (HepG2, 0.1875 µM): 35%
- target mRNA inhibition (HepG2, 0.75 µM): 70%
- target mRNA inhibition (HepG2, 3 µM): 90%
- target mRNA inhibition (HepG2, 4 µM): 85% and 77%
- target mRNA inhibition (HepG2, 12 µM): 91% and 97%

Sequence: TACAGGGTTTTTATTCA (sugars e2 k2 d9 k2 e2, PS)
- target mRNA inhibition (HepG2, 5 µM): 31%

Sequence: TACAGTGTTTAATGTTT (sugars e3 k2 d7 k2 e3, PS)
- target mRNA inhibition (HepG2, 3 µM): 30%

Sequence: TACAGTGTTTAATGTTTA (sugars e5 d8 e5, linkages s1 o3 s9 o2 s2)
- target mRNA inhibition (A431, 0.12 µM): 3%
- target mRNA inhibition (A431, 0.6 µM): 0%
- target mRNA inhibition (A431, 3 µM): 1%
- target mRNA inhibition (A431, 15 µM): 20%
- target mRNA inhibition (HepG2, 0.222 µM): 13%
- target mRNA inhibition (HepG2, 0.667 µM): 46%
- target mRNA inhibition (HepG2, 2 µM): 70%
- target mRNA inhibition (HepG2, 6 µM): 57%

Sequence: TACATTTCTACAGCTA (sugars ekddddddddekekee, linkages s1 o1 s8 o3 s2)
- target mRNA inhibition (A431, 0.12 µM): 37%
- target mRNA inhibition (A431, 0.6 µM): 0%
- target mRNA inhibition (A431, 3 µM): 22%
- target mRNA inhibition (A431, 15 µM): 12%
- target mRNA inhibition (HepG2, 0.222 µM): 36%
- target mRNA inhibition (HepG2, 0.667 µM): 69%
- target mRNA inhibition (HepG2, 2 µM): 83%
- target mRNA inhibition (HepG2, 6 µM): 95%

Sequence: TACTTTCTTCATTTCCA (sugars e3 k2 d7 k2 e3, PS)
- target mRNA inhibition (HepG2, 3 µM): 18%

Sequence: TATACAAATCTTCCAAG (sugars e3 k2 d7 k2 e3, PS)
- target mRNA inhibition (HepG2, 3 µM): 11%

Sequence: TATAGGCCAGACCTCCGCGC (sugars e5 d10 e5, PS)
- target mRNA inhibition (HepG2, 4 µM): 40%

Sequence: TATCAGGATACATTTCTACA (sugars e5 d10 e5, PS)
- target mRNA inhibition (HepG2, 0.1875 µM): 13%
- target mRNA inhibition (HepG2, 0.75 µM): 16%
- target mRNA inhibition (HepG2, 3 µM): 48%
- target mRNA inhibition (HepG2, 5 µM): 58%
- target mRNA inhibition (HepG2, 12 µM): 81%

Sequence: TCACACAATTACACTTT (sugars e2 k2 d9 k2 e2, PS)
- target mRNA inhibition (HepG2, 5 µM): 39%

Sequence: TCAGCAGTCACATTGCCCAA (sugars e5 d10 e5, PS)
- target mRNA inhibition (HepG2, 5 µM): 52% and 42%

Sequence: TCAGTTTCTCACTACAG (sugars e2 k2 d9 k2 e2, PS)
- target mRNA inhibition (HepG2, 5 µM): 43%

Sequence: TCATAAATCAGTTTCTCACT (sugars e5 d10 e5, PS)
- target mRNA inhibition (HepG2, 5 µM): 21%

Sequence: TCATCCTTTGGCCCACC (sugars e3 k2 d7 k2 e3, PS)
- target mRNA inhibition (HepG2, 3 µM): 27%

Sequence: TCATTTCCACCTTTGCC (sugars e3 k2 d7 k2 e3, PS)
- target mRNA inhibition (HepG2, 3 µM): 57%

Sequence: TCCAACATGCCTCTCTT (sugars e3 k2 d7 k2 e3, PS)
- target mRNA inhibition (HepG2, 3 µM): 0%

Sequence: TCCATGCAGGCCTTCAG (sugars e3 k2 d7 k2 e3, PS)
- target mRNA inhibition (HepG2, 3 µM): 18%

Sequence: TCCATTACTTTCCTTCT (sugars e3 k2 d7 k2 e3, PS)
- target mRNA inhibition (HepG2, 3 µM): 18%

Sequence: TCCTTCTGCTCGAAATT (sugars e3 k2 d7 k2 e3, PS)
- target mRNA inhibition (HepG2, 3 µM): 14%

Sequence: TCCTTTGGCCCACCGTGTTT (sugars e5 d10 e5, PS)
- target mRNA inhibition (HepG2, 5 µM): 30% and 23%

Sequence: TCTACAGCTAGCAGGAT (sugars e2 k2 d8 k2 e3, PS)
- target mRNA inhibition (HepG2, 0.1875 µM): 23%
- target mRNA inhibition (HepG2, 0.75 µM): 51%
- target mRNA inhibition (HepG2, 3 µM): 74%
- target mRNA inhibition (HepG2, 4 µM): 75%
- target mRNA inhibition (HepG2, 12 µM): 91%
